Results on twelve molecules are retold here after ChEMBL document CHEMBL5726667, “Substituted pyrrolo[2,3-b]pyrazines and substituted pyrazolo[3,4-b]pyridines as ITK and JAK kinase inhibitors” (2017).

The target in test [1] is T1, Tyrosine-protein kinase ITK/TSK (Homo sapiens, UniProt Q08881).
T1 sequence (Q08881 whole entry): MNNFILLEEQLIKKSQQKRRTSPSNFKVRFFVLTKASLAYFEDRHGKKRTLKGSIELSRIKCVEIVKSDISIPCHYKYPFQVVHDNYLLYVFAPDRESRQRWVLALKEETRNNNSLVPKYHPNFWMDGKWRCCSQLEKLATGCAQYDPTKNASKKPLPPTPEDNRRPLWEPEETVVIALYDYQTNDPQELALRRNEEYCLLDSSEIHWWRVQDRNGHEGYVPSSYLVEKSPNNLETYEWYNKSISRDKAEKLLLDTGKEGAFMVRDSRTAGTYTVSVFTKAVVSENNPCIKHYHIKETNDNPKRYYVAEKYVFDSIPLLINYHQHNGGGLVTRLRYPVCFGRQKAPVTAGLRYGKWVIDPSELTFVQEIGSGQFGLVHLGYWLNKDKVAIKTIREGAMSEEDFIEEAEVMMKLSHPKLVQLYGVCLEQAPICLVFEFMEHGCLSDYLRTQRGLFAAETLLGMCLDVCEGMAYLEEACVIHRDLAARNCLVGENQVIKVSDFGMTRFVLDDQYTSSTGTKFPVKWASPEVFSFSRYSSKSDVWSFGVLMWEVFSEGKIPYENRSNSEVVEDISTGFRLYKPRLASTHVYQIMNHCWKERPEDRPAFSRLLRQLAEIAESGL
Briefly: In Vitro Inhibition Assay: ITK and JAK3 Kinase assay procedures:Enzyme was incubated with substrate peptide in reaction buffer in the presence and absence of test compounds or Staurosporine. All additions were done on ice, followed by the addition of ATP mix. Wells were uniformly mixed using an Eppendorff plate shaker and incubated at 30° C. for 20 min, and stopped by the addition of 5 μL of 3% ….
Description: (§1) All additions were done on ice, followed by the addition of ATP mix. Wells were uniformly mixed using an Eppendorff plate shaker and incubated at 30° C. for 20 min, and stopped by the addition of 5 μL of 3% phosphoric acid. Volume was increased to 100 μL by adding 0.8% phosphoric acid which was then transferred to PC filter mats (Millipore), pre-equilibrated with 70% ethanol and water. Plates were washed thrice with 100 μL 0.8% phosphoric acid and dried for an hour at 60° C. 100 μL scintillation fluid was added into each well and reading taken in Perkin Elmer TOPCOUNT beta counter.

Test [2] concerns the target T2, Tyrosine-protein kinase JAK3 (Homo sapiens, UniProt P52333).
T2 sequence (P52333 whole entry): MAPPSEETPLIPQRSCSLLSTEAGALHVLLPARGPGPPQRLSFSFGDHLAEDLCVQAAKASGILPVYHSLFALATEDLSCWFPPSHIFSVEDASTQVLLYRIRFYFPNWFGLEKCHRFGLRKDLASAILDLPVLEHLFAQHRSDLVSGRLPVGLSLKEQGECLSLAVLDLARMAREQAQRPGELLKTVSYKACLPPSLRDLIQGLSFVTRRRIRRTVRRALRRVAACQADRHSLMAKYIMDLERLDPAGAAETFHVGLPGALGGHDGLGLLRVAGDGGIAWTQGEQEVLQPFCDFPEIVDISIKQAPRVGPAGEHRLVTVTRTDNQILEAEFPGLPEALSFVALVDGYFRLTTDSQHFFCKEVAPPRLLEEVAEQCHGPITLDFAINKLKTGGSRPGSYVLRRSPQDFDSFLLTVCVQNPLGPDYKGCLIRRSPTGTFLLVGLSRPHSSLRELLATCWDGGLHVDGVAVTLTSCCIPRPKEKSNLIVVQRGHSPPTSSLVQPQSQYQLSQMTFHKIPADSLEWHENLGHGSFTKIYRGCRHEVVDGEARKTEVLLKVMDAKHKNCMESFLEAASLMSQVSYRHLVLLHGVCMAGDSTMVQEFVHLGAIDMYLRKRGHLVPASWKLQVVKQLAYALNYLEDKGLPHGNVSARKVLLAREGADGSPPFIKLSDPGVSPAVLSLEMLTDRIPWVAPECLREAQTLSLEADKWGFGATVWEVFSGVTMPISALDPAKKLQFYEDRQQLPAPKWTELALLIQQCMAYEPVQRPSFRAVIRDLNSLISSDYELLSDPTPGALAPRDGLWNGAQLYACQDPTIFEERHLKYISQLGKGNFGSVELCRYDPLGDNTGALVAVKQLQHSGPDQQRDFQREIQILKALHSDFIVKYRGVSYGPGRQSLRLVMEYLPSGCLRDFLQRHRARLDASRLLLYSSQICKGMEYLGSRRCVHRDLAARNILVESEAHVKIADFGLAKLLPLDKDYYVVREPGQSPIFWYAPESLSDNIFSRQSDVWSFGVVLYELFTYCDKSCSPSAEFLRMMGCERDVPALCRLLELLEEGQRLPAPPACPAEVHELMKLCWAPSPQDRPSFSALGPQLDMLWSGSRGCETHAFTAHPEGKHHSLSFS
The test is described as above.
Description: as §1

By IC50 is commonly meant the concentration needed to halve the response being measured. Low readings indicate greater potency, high ones weaker potency. Consider `C=CC(=O)Nc1cccc(-c2cnc3[nH]cc(-c4cc(F)cc(F)c4OC)c3n2)c1`, for which the half-maximal inhibitory concentration (IC50) in test [1] and in test [2] was greater than 0.1 µM throughout.

`Cc1c[nH]c2ncc(Nc3cccc(CC#N)c3)cc12`: the concentration for half-maximal inhibition (IC50) in test [1] and in test [2] was greater than 1 µM each time.

For the molecule `C=CC(=O)Nc1cccc(-c2cnc3c(c2)CC(=O)N3)c1`, the IC50 in test [1] and in test [2] was greater than 0.1 µM in each case.

For `C=CC(=O)Nc1cccc(-c2cnc3[nH]ccc3c2)c1`, the IC50 in test [1] and in test [2] was greater than 1 µM throughout.

With `CC/C=C/C(=O)Nc1cccc(-c2cnc3[nH]nc(C)c3c2)c1`, the IC50 in test [1] and in test [2] was greater than 0.1 µM throughout.

`CC/C=C/C(=O)Nc1cc(-c2cnc3[nH]cc(C)c3c2)ccc1Cl`: the half-maximal inhibitory concentration (IC50) in test [1] and in test [2] was greater than 0.1 µM throughout.

In the case of `Cc1c[nH]c2ncc(-c3ccc(Cl)c(NC(=O)/C=C/N(C)C)c3)cc12`, the IC50 in test [1] and in test [2] was greater than 1 µM each time.

In the case of `C=CC(=O)Nc1cccc(-c2cnc3[nH]cc(-c4cc5ccc(Cl)cc5[nH]4)c3n2)c1`, the half-maximal inhibitory concentration (IC50) in test [1] and in test [2] was greater than 0.1 µM in each case.

As to `CC/C=C/C(=O)Nc1cccc(-c2cnc3[nH]cc(C)c3c2)c1`, the IC50 in test [1] and in test [2] was greater than 1 µM in each case.

Consider `Cc1c[nH]c2ncc(-c3cccc(NC(=O)/C=C/N(C)C)c3)cc12`, for which the IC50 in test [1] and in test [2] was greater than 1 µM throughout.

For the molecule `C=CC(=O)Nc1cccc(-c2cnc3[nH]ccc3n2)c1`, the half-maximal inhibitory concentration (IC50) in test [1] and in test [2] was greater than 1 µM each time.

In the case of `COc1c(F)cc(F)cc1-c1c[nH]c2ncc(-c3cc(NC(=O)/C(C)=C/C(C)(C)C)ccc3F)cc12`, the IC50 in test [1] and in test [2] was less than 0.1 µM each time.
